Assays:
[1] = biological target: Macrophage metalloelastase (Homo sapiens, UniProt P39900); test: Inhibition of MMP12 (unknown origin)
[2] = biological target: T1, Bone morphogenetic protein 1 (Homo sapiens, UniProt P13497); test: Inhibition of recombinant human N-terminal 6His/flag-tagged BMP1 (121 to 721 residues) expressed in CHO cells using ((5-FAM)-ELIDQYDVQRDDSSDGSLED-K(5,6 TAMRA)-CONH2) as substrate preincubated for 10 mins followed by substrate addition measured after 60 mins
T1 sequence (P13497 whole entry): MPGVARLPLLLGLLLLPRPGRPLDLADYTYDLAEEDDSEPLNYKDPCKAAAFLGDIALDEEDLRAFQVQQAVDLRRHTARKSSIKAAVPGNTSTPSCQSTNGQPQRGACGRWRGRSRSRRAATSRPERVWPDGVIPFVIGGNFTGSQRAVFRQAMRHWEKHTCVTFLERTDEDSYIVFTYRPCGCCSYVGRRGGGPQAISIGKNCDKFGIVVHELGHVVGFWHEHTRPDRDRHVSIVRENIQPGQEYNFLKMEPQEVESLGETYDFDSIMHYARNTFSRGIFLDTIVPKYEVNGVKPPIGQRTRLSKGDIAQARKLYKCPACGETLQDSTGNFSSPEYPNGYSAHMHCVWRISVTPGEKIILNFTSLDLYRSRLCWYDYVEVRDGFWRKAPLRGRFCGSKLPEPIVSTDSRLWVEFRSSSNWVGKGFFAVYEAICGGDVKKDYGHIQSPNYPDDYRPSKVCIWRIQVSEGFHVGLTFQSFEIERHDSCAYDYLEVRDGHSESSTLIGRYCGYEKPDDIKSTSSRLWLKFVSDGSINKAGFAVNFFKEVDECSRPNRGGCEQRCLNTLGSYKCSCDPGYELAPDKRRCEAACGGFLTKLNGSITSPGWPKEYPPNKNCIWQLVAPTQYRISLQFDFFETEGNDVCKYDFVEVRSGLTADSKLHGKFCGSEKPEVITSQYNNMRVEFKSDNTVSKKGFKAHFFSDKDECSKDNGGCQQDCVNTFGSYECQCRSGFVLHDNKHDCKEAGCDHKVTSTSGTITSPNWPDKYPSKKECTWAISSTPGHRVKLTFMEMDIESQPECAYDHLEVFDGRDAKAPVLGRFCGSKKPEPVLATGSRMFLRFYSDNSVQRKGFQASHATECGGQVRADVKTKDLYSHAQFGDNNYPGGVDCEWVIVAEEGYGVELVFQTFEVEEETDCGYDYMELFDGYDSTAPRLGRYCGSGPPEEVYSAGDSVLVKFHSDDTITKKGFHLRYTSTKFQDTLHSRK

[3] = biological target: T1, Bone morphogenetic protein 1; test: Binding affinity to BMP1 (unknown origin) using ((5-FAM)-ELIDQYDVQRDDSSDGSLED-K(5,6 TAMRA)-CONH2 as substrate preincubated for 3 hrs followed by substrate addition measured for 120 mins by FRET assay
[4] = Mean residence time in sc dosed rat; type: ADME, organism-based; settings: in vivo
Canis familiaris = test: Dose normalized AUC in subcutaneously dosed dog; type: ADME, organism-based, Canis lupus familiaris; settings: in vivo, sc
[5] = biological target: T2, Bone morphogenetic protein 1 (Homo sapiens) (UniProt P13497); test: Binding affinity to BMP1 (unknown origin) assessed as dissociation rate constant using ((5-FAM)-ELIDQYDVQRDDSSDGSLED-K(5,6 TAMRA)-CONH2 as substrate preincubated for 0.5 hrs followed by substrate addition measured over 4 hrs by rapid jump dilution method
T2 sequence (whole entry): T1 sequence (P13497 whole entry)

[6] = biological target: T2, Bone morphogenetic protein 1 (Homo sapiens); test: Binding affinity to BMP1 (unknown origin) assessed as half life using ((5-FAM)-ELIDQYDVQRDDSSDGSLED-K(5,6 TAMRA)-CONH2 as substrate preincubated for 0.5 hrs followed by substrate addition measured over 4 hrs by rapid jump dilution method
[7] = Mean residence time in sc dosed dog; type: ADME, organism-based, Canis lupus familiaris; settings: in vivo
Rattus norvegicus = test: Dose normalized AUC in subcutaneously dosed rat; type: ADME, organism-based; settings: in vivo, sc
Tolloid-like protein 2 = biological target: T3, Tolloid-like protein 2 (Homo sapiens, UniProt Q9Y6L7); test: Binding affinity to TLL2 (unknown origin) using ((5-FAM)-ELIDQYDVQRDDSSDGSLED-K(5,6 TAMRA)-CONH2 as substrate incubated for 3.5 hrs followed by substrate addition by FRET assay
T3 sequence (Q9Y6L7 whole entry): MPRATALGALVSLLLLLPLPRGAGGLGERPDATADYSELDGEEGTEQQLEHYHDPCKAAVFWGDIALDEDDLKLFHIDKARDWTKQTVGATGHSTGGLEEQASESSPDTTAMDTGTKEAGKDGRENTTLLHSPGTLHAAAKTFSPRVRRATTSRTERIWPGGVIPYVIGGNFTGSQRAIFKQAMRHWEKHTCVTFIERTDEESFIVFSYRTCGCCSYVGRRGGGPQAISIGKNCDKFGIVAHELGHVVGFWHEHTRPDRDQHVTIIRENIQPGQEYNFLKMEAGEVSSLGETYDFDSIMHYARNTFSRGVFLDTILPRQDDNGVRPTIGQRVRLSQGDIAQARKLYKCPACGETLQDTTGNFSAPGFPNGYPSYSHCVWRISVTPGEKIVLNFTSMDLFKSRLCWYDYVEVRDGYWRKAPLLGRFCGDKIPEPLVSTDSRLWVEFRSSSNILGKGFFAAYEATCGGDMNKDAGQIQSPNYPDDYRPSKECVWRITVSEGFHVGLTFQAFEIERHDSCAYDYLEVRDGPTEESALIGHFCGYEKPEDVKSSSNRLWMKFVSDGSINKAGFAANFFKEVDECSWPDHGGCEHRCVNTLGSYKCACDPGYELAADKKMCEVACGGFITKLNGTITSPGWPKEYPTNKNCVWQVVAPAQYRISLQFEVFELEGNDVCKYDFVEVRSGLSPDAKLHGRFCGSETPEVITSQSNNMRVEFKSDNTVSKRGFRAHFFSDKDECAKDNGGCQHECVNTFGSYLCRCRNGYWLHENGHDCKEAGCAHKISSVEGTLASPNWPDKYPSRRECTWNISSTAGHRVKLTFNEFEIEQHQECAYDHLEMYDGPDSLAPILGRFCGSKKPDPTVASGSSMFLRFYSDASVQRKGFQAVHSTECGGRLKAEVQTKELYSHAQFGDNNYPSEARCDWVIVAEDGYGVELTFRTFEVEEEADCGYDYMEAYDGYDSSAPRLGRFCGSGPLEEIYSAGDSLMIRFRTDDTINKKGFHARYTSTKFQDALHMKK

[8] = biological target: T2, Bone morphogenetic protein 1 (Homo sapiens); test: Binding affinity to BMP1 (unknown origin) assessed as association rate constant using ((5-FAM)-ELIDQYDVQRDDSSDGSLED-K(5,6 TAMRA)-CONH2 as substrate by FRET based stopped-flow spectrofluorometric method
Tolloid-like protein 1 = biological target: T4, Tolloid-like protein 1 (Homo sapiens, UniProt O43897); test: Binding affinity to TLL1 (unknown origin) using ((5-FAM)-ELIDQYDVQRDDSSDGSLED-K(5,6 TAMRA)-CONH2 as substrate incubated for 3.5 hrs followed by substrate addition by FRET assay
T4 sequence (O43897 whole entry): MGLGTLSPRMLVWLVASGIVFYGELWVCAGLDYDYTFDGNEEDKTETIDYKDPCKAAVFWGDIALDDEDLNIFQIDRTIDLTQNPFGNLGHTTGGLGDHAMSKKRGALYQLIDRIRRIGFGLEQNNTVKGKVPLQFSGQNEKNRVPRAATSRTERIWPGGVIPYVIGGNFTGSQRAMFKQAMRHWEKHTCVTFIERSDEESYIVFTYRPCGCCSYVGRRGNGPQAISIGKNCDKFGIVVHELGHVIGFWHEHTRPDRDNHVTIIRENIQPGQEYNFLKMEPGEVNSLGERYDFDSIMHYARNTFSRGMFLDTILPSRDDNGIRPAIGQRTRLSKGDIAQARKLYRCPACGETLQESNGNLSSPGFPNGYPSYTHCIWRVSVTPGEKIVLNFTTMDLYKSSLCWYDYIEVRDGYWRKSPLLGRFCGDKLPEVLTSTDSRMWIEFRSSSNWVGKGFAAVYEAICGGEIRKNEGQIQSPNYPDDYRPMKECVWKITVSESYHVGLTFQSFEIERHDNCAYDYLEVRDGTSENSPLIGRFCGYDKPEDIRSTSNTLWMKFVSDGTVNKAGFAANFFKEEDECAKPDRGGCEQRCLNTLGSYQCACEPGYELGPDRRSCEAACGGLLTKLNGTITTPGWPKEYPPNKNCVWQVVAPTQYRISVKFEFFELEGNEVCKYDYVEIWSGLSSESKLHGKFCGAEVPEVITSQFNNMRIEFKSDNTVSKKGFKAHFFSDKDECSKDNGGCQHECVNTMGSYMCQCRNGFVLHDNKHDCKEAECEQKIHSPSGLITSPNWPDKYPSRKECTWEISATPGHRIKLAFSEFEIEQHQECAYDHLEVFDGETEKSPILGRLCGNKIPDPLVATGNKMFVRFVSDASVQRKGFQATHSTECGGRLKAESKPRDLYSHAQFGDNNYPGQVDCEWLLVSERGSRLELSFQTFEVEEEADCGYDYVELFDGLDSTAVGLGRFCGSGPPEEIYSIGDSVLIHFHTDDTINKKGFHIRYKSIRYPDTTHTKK

Macrophage metalloelastase, sequence (P39900 whole entry, the tested form may be a part): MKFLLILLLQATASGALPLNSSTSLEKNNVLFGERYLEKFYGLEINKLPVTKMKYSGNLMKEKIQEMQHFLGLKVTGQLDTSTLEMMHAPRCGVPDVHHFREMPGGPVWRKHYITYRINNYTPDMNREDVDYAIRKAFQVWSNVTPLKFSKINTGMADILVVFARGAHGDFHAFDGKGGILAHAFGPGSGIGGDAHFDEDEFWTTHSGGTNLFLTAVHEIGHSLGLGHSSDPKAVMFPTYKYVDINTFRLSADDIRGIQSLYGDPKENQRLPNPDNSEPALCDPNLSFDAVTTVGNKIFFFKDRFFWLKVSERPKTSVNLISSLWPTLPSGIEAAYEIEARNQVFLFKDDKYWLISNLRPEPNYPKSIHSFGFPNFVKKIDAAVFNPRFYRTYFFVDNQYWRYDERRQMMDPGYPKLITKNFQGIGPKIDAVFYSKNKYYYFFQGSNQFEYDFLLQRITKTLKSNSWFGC

SMILES | IC50 [1] [nM] | IC50 [2] [nM] | also measured
CCCCC[C@@H](CN(O)C=O)C(=O)NCNC(=O)c1cc2cccc(OC)c2o1 | > 10000 | 4000 | –
CCCCC[C@@H](C(=O)NCNC(=O)c1ccc(-c2cc(OCC)cc(P(=O)(O)O)c2)o1)[C@@H](CC)N(O)C=O | – | < 1 | Ki [3]: 0.04 nM; MRT [4]: > 2 h; AUC/dose (Canis familiaris): 5 kg·h/L; K [5]: 0.93 h⁻¹; T1/2 [6]: 0.75 h; MRT [7]: > 2 h; AUC/dose (Rattus norvegicus): 2.3 kg·h/L; Ki (Tolloid-like protein 2): 0.26 nM; K [8]: 3.6e+06 M⁻¹ s⁻¹; Ki (Tolloid-like protein 1): 0.24 nM
CCCCC[C@H](CN(O)C=O)C(=O)NCNC(=O)c1ccc(-c2ccc(C(=O)O)cc2)o1 | – | 1 | –
CCCCC[C@@H](C(=O)NCNC(=O)c1ccc(-c2ccc(P(=O)(O)O)c(OCC)c2)o1)[C@@H](CC)N(O)C=O | – | < 1 | –
CCCCC[C@@H](C(=O)NCNC(=O)c1ccc(-c2cc(OCC)cc(C(=O)N[C@@H](CC(=O)O)C(=O)O)c2)o1)[C@@H](CC)N(O)C=O | – | < 1 | –
CCCCC[C@@H](C(=O)NCNC(=O)c1cc2cccc(OC)c2o1)[C@H](CC)N(O)C=O | 200 | > 10000 | –
COc1cccc2cc(C(=O)NCNC(=O)[C@H](Cc3ccccc3)CN(O)C=O)oc12 | 4000 | 160 | –
CCCCC[C@H](CN(O)C=O)C(=O)NCNC(=O)c1ccc(-c2cccc(OCC)c2)o1 | – | 1 | –
CCCCC[C@H](CN(O)C=O)C(=O)NCNC(=O)c1ccc(-c2cccc(C(=O)O)c2)o1 | – | 8 | –
CCCCC[C@H](CN(O)C=O)C(=O)NCNC(=O)c1ccc(-c2cccc(OC)c2)o1 | – | 20 | –
CCCCC[C@@H](C(=O)NCNC(=O)c1ccc(-c2ccc(C(=O)O)c(OCC)c2)o1)[C@@H](CC)N(O)C=O | – | < 1 | –

Now from value to molecule, other results behind:

IC50 [1] [nM] | IC50 [2] [nM] | SMILES | also measured
400 | 160 | CCCCC[C@H](CN(O)C=O)C(=O)NCNC(=O)c1cc2cccc(OC)c2o1 | –
> 10000 | 126 | CCCCC[C@@H](C(=O)NCNC(=O)c1cc2cccc(OC)c2o1)[C@@H](CC)N(O)C=O | –
– | 25 | CCCCC[C@H](CN(O)C=O)C(=O)NCNC(=O)c1ccc(-c2ccccc2)o1 | –
– | < 1 | CCCCC[C@@H](C(=O)NCNC(=O)c1ccc(-c2ccc(C(=O)N[C@@H](CC(=O)O)C(=O)O)c(OCC)c2)o1)[C@@H](CC)N(O)C=O | Ki [3]: 0.0068 nM; MRT [4]: > 2 h; AUC/dose (Canis familiaris): 0.85 kg·h/L; K [5]: 2.3 h⁻¹; T1/2 [6]: 0.3 h; MRT [7]: > 2 h; AUC/dose (Rattus norvegicus): 0.27 kg·h/L; Ki (Tolloid-like protein 2): 0.039 nM; K [8]: 5.5e+07 M⁻¹ s⁻¹; Ki (Tolloid-like protein 1): 0.031 nM
1250 | 1250 | CCC[C@H](CN(O)C=O)C(=O)NCNC(=O)c1cc2cccc(OC)c2o1 | –
– | < 1 | CCCCC[C@@H](C(=O)NCNC(=O)c1ccc(-c2cc(OCC)cc(C(=O)O)c2)o1)[C@@H](CC)N(O)C=O | –
> 10000 | 6300 | COc1cccc2cc(C(=O)NCNC(=O)CCN(O)C=O)oc12 | –

Source: ChEMBL document CHEMBL4196124, “Reverse Hydroxamate Inhibitors of Bone Morphogenetic Protein 1” (ACS Med Chem Lett, 2018)
